Data from patent US9744222B2, “Peptide for vaccine” (Circassia Limited, priority 2007, dated 2017).
Where a SMILES comes first, the peptide text is derived from it.

Assay: Solubility pre-screen of peptides
Details: pre-screened for solubility in an aqueous, acidic milieu; YES/NO
Method: Methods The assay employed is a competitive MHC class II binding assay, wherein each peptide is analysed for its ability to displace a known control binder from each of the human MHC class II allotypes investigated.
Also shown is the solubility status of the peptide at the highest concentrations in the aqueous solution of the binding assay. The value illustrates the lowest concentration at which an insoluble white precipitate is seen.

In the case of `CC[C@H](C)[C@H](N)C(=O)N[C@@H](CC(=O)O)C(=O)N[C@@H](CC(C)C)C(=O)N[C@@H](CCCNC(=N)N)C(=O)N[C@@H](CCC(N)=O)C(=O)N[C@@H](CCSC)C(=O)N[C@@H](CCCNC(=N)N)C(=O)N[C@H](C(=O)N[C@H](C(=O)N[C@H](C(=O)N1CCC[C@H]1C(=O)N[C@H](C(=O)N[C@@H](CCCNC(=N)N)C(=O)O)[C@@H](C)CC)[C@@H](C)O)C(C)C)[C@@H](C)O` [HDM01] (H-IDLRQMRTVTPIR-OH; N-terminus and C-terminus assumed), the Solubility test is reported as “YES”.
With `CC[C@H](C)[C@H](NC(=O)[C@@H]1CCCN1C(=O)[C@@H](NC(=O)[C@@H](NC(=O)[C@@H](NC(=O)[C@@H](N)CCCNC(=N)N)[C@@H](C)O)C(C)C)[C@@H](C)O)C(=O)N[C@@H](CCCNC(=N)N)C(=O)N[C@@H](CCSC)C(=O)N[C@@H](CCC(N)=O)C(=O)NCC(=O)NCC(=O)N[C@@H](CS)C(=O)NCC(=O)O` [HDM02] (H-RTVTPIRMQGGCG-OH; N-terminus and C-terminus assumed) the Solubility test was “YES”.
In the case of `CC(C)C[C@H](NC(=O)[C@H](CC(=O)O)NC(=O)[C@H](CC(C)C)NC(=O)[C@H](CO)NC(=O)[C@H](CCC(N)=O)NC(=O)[C@H](CC(N)=O)NC(=O)[C@@H](N)CCCNC(=N)N)C(=O)N[C@@H](C)C(=O)N[C@@H](CCC(=O)O)C(=O)N[C@@H](CCC(N)=O)C(=O)N[C@@H](CCC(=O)O)C(=O)N[C@@H](CC(C)C)C(=O)N[C@H](C(=O)N[C@@H](CC(=O)O)C(=O)N[C@@H](CS)C(=O)N[C@@H](C)C(=O)N[C@@H](CO)C(=O)N[C@@H](CCC(N)=O)C(=O)N[C@@H](Cc1c[nH]cn1)C(=O)O)C(C)C` [HDM03C] (H-RNQSLDLAEQELVDCASQH-OH; N-terminus and C-terminus assumed), the Solubility test is reported as “YES”.
In the case of `CC[C@H](C)[C@H](NC(=O)[C@H](Cc1ccc(O)cc1)NC(=O)[C@@H](N)CCC(=O)O)C(=O)N[C@@H](CCC(N)=O)C(=O)N[C@@H](Cc1c[nH]cn1)C(=O)N[C@@H](CC(N)=O)C(=O)NCC(=O)N[C@H](C(=O)N[C@H](C(=O)N[C@@H](CCC(N)=O)C(=O)N[C@@H](CCC(=O)O)C(=O)N[C@@H](CO)C(=O)N[C@@H](Cc1ccc(O)cc1)C(=O)O)C(C)C)C(C)C` [HDM05] (H-EYIQHNGVVQESY-OH; N-terminus and C-terminus assumed), the Solubility test is reported as “YES”.
With `CC(C)[C@H](NC(=O)[C@H](Cc1ccc(O)cc1)NC(=O)[C@@H](N)CCCNC(=N)N)C(=O)N[C@@H](C)C(=O)N[C@@H](CCCNC(=N)N)C(=O)N[C@@H](CCC(=O)O)C(=O)N[C@@H](CCC(N)=O)C(=O)N[C@@H](CO)C(=O)N[C@@H](CS)C(=O)N[C@@H](CCCNC(=N)N)C(=O)N[C@@H](CCCNC(=N)N)C(=O)N1CCC[C@H]1C(=O)N[C@@H](CC(N)=O)C(=O)O` [HDM06] (H-RYVAREQSCRRPN-OH; N-terminus and C-terminus assumed) the Solubility test was “YES”.
For `CC[C@H](C)[C@H](NC(=O)[C@H](CCCCN)NC(=O)[C@H](CC(N)=O)NC(=O)[C@@H](NC(=O)[C@H](CC(N)=O)NC(=O)[C@@H]1CCCN1)C(C)C)C(=O)N[C@@H](CCCNC(=N)N)C(=O)N[C@@H](CCC(=O)O)C(=O)N[C@@H](C)C(=O)N[C@@H](CC(C)C)C(=O)N[C@@H](C)C(=O)N[C@@H](CCC(N)=O)C(=O)N[C@H](C(=O)O)[C@@H](C)O` [HDM07] (H-PNVNKIREALAQT-OH; N-terminus and C-terminus assumed), the Solubility test was “YES”.
In the case of `CC[C@H](C)[C@H](NC(=O)[C@H](CCCCN)NC(=O)[C@@H](N)CC(N)=O)C(=O)N[C@@H](CCCNC(=N)N)C(=O)N[C@@H](CCC(=O)O)C(=O)N[C@@H](C)C(=O)N[C@@H](CC(C)C)C(=O)N[C@@H](C)C(=O)N[C@@H](CCC(N)=O)C(=O)N[C@H](C(=O)N[C@@H](Cc1c[nH]cn1)C(=O)N[C@@H](CO)C(=O)N[C@@H](C)C(=O)O)[C@@H](C)O` [HDM08] (H-NKIREALAQTHSA-OH; N-terminus and C-terminus assumed), the Solubility test is reported as “YES”.
With `CC[C@H](C)[C@H](NC(=O)[C@@H](NC(=O)[C@H](C)NC(=O)[C@@H](NC(=O)[C@H](C)NC(=O)[C@H](CO)NC(=O)[C@H](Cc1c[nH]cn1)NC(=O)[C@@H](NC(=O)[C@H](CCC(N)=O)NC(=O)[C@H](C)NC(=O)[C@H](CC(C)C)NC(=O)[C@H](C)NC(=O)[C@H](CCC(=O)O)NC(=O)[C@@H](N)CCCNC(=N)N)[C@@H](C)O)[C@@H](C)CC)C(C)C)C(=O)O` [HDM09A] (H-REALAQTHSAIAVI-OH; N-terminus and C-terminus assumed) the Solubility test was “YES”.
For `CC[C@H](C)[C@H](N)C(=O)NCC(=O)N[C@H](C(=O)N[C@@H](CCCCN)C(=O)N[C@@H](CC(=O)O)C(=O)N[C@@H](CC(C)C)C(=O)N[C@@H](CC(=O)O)C(=O)N[C@@H](C)C(=O)N[C@@H](Cc1ccccc1)C(=O)N[C@@H](CCCNC(=N)N)C(=O)N[C@@H](Cc1c[nH]cn1)C(=O)N[C@@H](Cc1ccc(O)cc1)C(=O)N[C@@H](CC(=O)O)C(=O)O)[C@@H](C)CC` [HDM11] (H-IGIKDLDAFRHYD-OH; N-terminus and C-terminus assumed), the Solubility test was “YES”.
In the case of `CC(C)C[C@H](NC(=O)[C@H](CC(=O)O)NC(=O)[C@@H](N)CCCCN)C(=O)N[C@@H](CC(=O)O)C(=O)N[C@@H](C)C(=O)N[C@@H](Cc1ccccc1)C(=O)N[C@@H](CCCNC(=N)N)C(=O)N[C@@H](Cc1c[nH]cn1)C(=O)N[C@@H](Cc1ccc(O)cc1)C(=O)N[C@@H](CC(=O)O)C(=O)NCC(=O)N[C@@H](CCCNC(=N)N)C(=O)N[C@H](C(=O)O)[C@@H](C)O` [HDM12] (H-KDLDAFRHYDGRT-OH; N-terminus and C-terminus assumed), the Solubility test is reported as “YES”.
In the case of `C[C@@H](O)[C@H](NC(=O)[C@H](CC(=O)O)NC(=O)[C@H](Cc1c[nH]c2ccccc12)NC(=O)[C@H](CO)NC(=O)[C@H](CC(N)=O)NC(=O)[C@@H](N)CCCNC(=N)N)C(=O)N[C@@H](CC(N)=O)C(=O)N[C@@H](Cc1c[nH]c2ccccc12)C(=O)NCC(=O)N[C@@H](CC(=O)O)C(=O)N[C@@H](CC(N)=O)C(=O)NCC(=O)N[C@@H](Cc1ccc(O)cc1)C(=O)NCC(=O)O` [HDM16A] (H-RNSWDTNWGDNGYG-OH; N-terminus and C-terminus assumed), the Solubility test is reported as “YES”.
With `CC(C)C[C@H](NC(=O)[C@H](CC(=O)O)NC(=O)[C@H](CC(C)C)NC(=O)[C@H](CCC(=O)O)NC(=O)[C@H](CO)NC(=O)[C@@H]1CCCN1C(=O)[C@@H](NC(=O)[C@H](CC(N)=O)NC(=O)[C@@H](NC(=O)[C@H](CO)NC(=O)[C@@H](N)CC(N)=O)C(C)C)C(C)C)C(=O)N[C@@H](CCCNC(=N)N)C(=O)N[C@@H](CO)C(=O)N[C@@H](CC(C)C)C(=O)N[C@@H](CCCNC(=N)N)C(=O)N[C@H](C(=O)O)[C@@H](C)O` [HDM17] (H-NSVNVPSELDLRSLRT-OH; N-terminus and C-terminus assumed) the Solubility test was “YES”.
With `CC[C@H](C)[C@H](NC(=O)[C@H](CCC(=O)O)NC(=O)[C@H](Cc1c[nH]cn1)NC(=O)[C@H](CC(N)=O)NC(=O)[C@H](C)NC(=O)[C@H](CS)NC(=O)[C@H](CC(=O)O)NC(=O)[C@H](CCCCN)NC(=O)[C@@H](NC(=O)[C@H](CC(=O)O)NC(=O)[C@@H](NC(=O)[C@H](CCC(N)=O)NC(=O)[C@@H](N)CC(=O)O)C(C)C)C(C)C)C(=O)N[C@@H](CCCCN)C(=O)N[C@@H](CCCCN)C(=O)O` [HDM19] (H-DQVDVKDCANHEIKK-OH; N-terminus and C-terminus assumed) the Solubility test was “YES”.
With `CC(C)C[C@H](NC(=O)[C@H](CCC(N)=O)NC(=O)[C@H](Cc1ccccc1)NC(=O)[C@@H]1CCCN1C(=O)[C@@H](N)CCCCN)C(=O)N[C@@H](CCC(=O)O)C(=O)N[C@@H](C)C(=O)N[C@H](C(=O)N[C@@H](Cc1ccccc1)C(=O)N[C@@H](CCC(=O)O)C(=O)N[C@@H](C)C(=O)N[C@@H](CC(N)=O)C(=O)N[C@@H](CCC(N)=O)C(=O)N[C@@H](CC(N)=O)C(=O)N[C@H](C(=O)N[C@@H](CCCCN)C(=O)O)[C@@H](C)O)C(C)C` [HDM21A] (H-KPFQLEAVFEANQNTK-OH; N-terminus and C-terminus assumed) the Solubility test was “YES”.
In the case of `CC(C)C[C@H](NC(=O)[C@H](CCC(N)=O)NC(=O)[C@H](Cc1ccccc1)NC(=O)[C@@H]1CCCN1C(=O)[C@H](CCCCN)NC(=O)CNC(=O)[C@@H](N)CCCNC(=N)N)C(=O)N[C@@H](CCC(=O)O)C(=O)N[C@@H](C)C(=O)N[C@H](C(=O)N[C@@H](Cc1ccccc1)C(=O)N[C@@H](CCC(=O)O)C(=O)N[C@@H](C)C(=O)N[C@@H](CC(N)=O)C(=O)N[C@@H](CCC(N)=O)C(=O)N[C@@H](CC(N)=O)C(=O)N[C@H](C(=O)O)[C@@H](C)O)C(C)C` [HDM21B] (H-RGKPFQLEAVFEANQNT-OH; N-terminus and C-terminus assumed), the Solubility test is reported as “YES”.
With `CC(C)C[C@H](NC(=O)[C@H](CCC(N)=O)NC(=O)[C@H](Cc1ccccc1)NC(=O)[C@@H]1CCCN1C(=O)[C@@H](N)CCCCN)C(=O)N[C@@H](CCC(=O)O)C(=O)N[C@@H](C)C(=O)N[C@H](C(=O)N[C@@H](Cc1ccccc1)C(=O)N[C@@H](CCC(=O)O)C(=O)N[C@@H](C)C(=O)N[C@@H](CC(N)=O)C(=O)N[C@@H](CCC(N)=O)C(=O)N[C@@H](CC(N)=O)C(=O)N[C@H](C(=O)O)[C@@H](C)O)C(C)C` [HDM21] (H-KPFQLEAVFEANQNT-OH; N-terminus and C-terminus assumed) the Solubility test was “YES”.
In the case of `CC(C)[C@H](NC(=O)[C@H](C)NC(=O)[C@@H](N)CCC(=O)O)C(=O)N[C@@H](Cc1ccccc1)C(=O)N[C@@H](CCC(=O)O)C(=O)N[C@@H](C)C(=O)N[C@@H](CC(N)=O)C(=O)N[C@@H](CCC(N)=O)C(=O)N[C@@H](CC(N)=O)C(=O)N[C@H](C(=O)N[C@@H](CCCCN)C(=O)N[C@H](C(=O)N[C@@H](C)C(=O)N[C@@H](CCCCN)C(=O)O)[C@@H](C)O)[C@@H](C)O` [HDM22A] (H-EAVFEANQNTKTAK-OH; N-terminus and C-terminus assumed), the Solubility test is reported as “YES”.
In the case of `CC[C@H](C)[C@H](NC(=O)[C@H](CCC(=O)O)NC(=O)[C@@H](NC(=O)[C@H](CCCCN)NC(=O)[C@H](C)N)[C@@H](C)CC)C(=O)N[C@@H](CCCCN)C(=O)N[C@@H](C)C(=O)N[C@@H](CO)C(=O)N[C@@H](CC(C)C)C(=O)N[C@@H](CC(=O)O)C(=O)NCC(=O)N[C@@H](CC(C)C)C(=O)N[C@@H](CCC(=O)O)C(=O)O` [HDM27] (H-AKIEIKASLDGLE-OH; N-terminus and C-terminus assumed), the Solubility test is reported as “YES”.
